Data from the OPERA property sets (Mansouri et al. 2018).
Converted amounts (≈) assume the structure as drawn.

Compound	logP	also measured
C[n+]1ccc(-c2cc[n+](C)cc2)cc1		solubility (20 °C): 2410 mM
COC(=O)c1ccccc1CS(=O)(=O)NC(=O)Nc1nc(OC)cc(OC)n1	2.18	
C/C=C(\C)C(=O)O[C@H]1C[C@@H](OC(C)=O)[C@@]2(C(=O)OC)CO[C@H]3[C@@H](O)[C@@](C)([C@]45O[C@@]4(C)[C@H]4C[C@@H]5O[C@@H]5OC=C[C@@]54O)[C@H]4[C@]1(CO[C@]4(O)C(=O)OC)[C@@H]32		solubility: 0.361 mM (≈ 260 µg/mL)
O=[N+]([O-])c1cc(C(F)(F)F)c(Cl)c([N+](=O)[O-])c1Nc1ncc(C(F)(F)F)cc1Cl	4.01	
CN1CSC(=S)N(C)C1	0.63	solubility (20 °C): 18.5 mM (≈ 3000 µg/mL)
CN/C(=N\[N+](=O)[O-])NCc1cnc(Cl)s1	0.7	
C[C@@H]1[C@@H](c2ccc(Cl)cc2)SC(=O)N1C(=O)NC1CCCCC1 (single isomer, unassigned)		solubility (20 °C): 0.00142 mM (≈ 0.5 µg/mL)
CC1=C(C(=O)Nc2ccccc2)SCCO1		solubility (20 °C): 0.672 mM (≈ 158 µg/mL)
CCCN(CC1CC1)c1c([N+](=O)[O-])cc(C(F)(F)F)cc1[N+](=O)[O-]		solubility (20 °C): 0.000288 mM (≈ 0.1 µg/mL)
CSc1nnc(C(C)(C)C)c(=O)n1/N=C/C(C)C		solubility (20 °C): 0.0373 mM (≈ 10 µg/mL)
CCOC(=O)COc1cc(-c2nn(C)c(OC(F)F)c2Cl)c(F)cc1Cl	3.49	
CC1(C(=O)Nc2ccc(O)c(Cl)c2Cl)CCCCC1	3.51	
COC(=O)N(OC)c1ccccc1COc1ccn(-c2ccc(Cl)cc2)n1	3.99	
COC(=O)c1ccccc1S(=O)(=O)NC(=O)Nc1nc(C)cc(C)n1		solubility (pH 7.0, 25 °C): 0.743 mM (≈ 271 µg/mL)
CCC(C)(CC)c1cc(NC(=O)c2c(OC)cccc2OC)on1	3.94	
CC(C)N1C(=O)N(c2ccccc2)CSC1=NC(C)(C)C	4.3	solubility (20 °C): 0.00295 mM (≈ 0.9 µg/mL)
N#CN	-0.82	solubility (20 °C): 11900 mM (≈ 500000 µg/mL)
CCC(CC)Nc1c([N+](=O)[O-])cc(C)c(C)c1[N+](=O)[O-]	5.2	solubility (20 °C): 0.00107 mM (≈ 0.3 µg/mL)
C[n+]1ccc(-c2cc[n+](C)cc2)cc1.[Cl-].[Cl-]	-4.5	solubility (20 °C): 2720 mM
CCN(CC)c1c([N+](=O)[O-])cc(C(F)(F)F)c(N)c1[N+](=O)[O-]	4.3	
CCCC(=O)N(CSP(=S)(OC)OC)c1ccccc1Cl	0.56	
CCOP(=O)(OCC)SCCSCC		solubility (20 °C): 7.74 mM (≈ 2000 µg/mL)
C=CCOC(Cn1ccnc1)c1ccc(Cl)cc1Cl (configuration not stated)	3.82	solubility (pH 7.6, 20 °C): 0.606 mM (≈ 180 µg/mL)
CC1=C(C(=O)Nc2ccccc2)S(=O)(=O)CCO1	0.77	solubility (25 °C): 4.43 mM (≈ 1180 µg/mL)
CCC(C)(NC(=O)c1cc(Cl)c(C)c(Cl)c1)C(=O)CCl (configuration not stated)	3.76	
CCN(Cc1ccc(Cl)nc1)/C(=C/[N+](=O)[O-])NC	-0.66	
O=C(Nc1ccccc1)Nc1cnns1		logD (pH 7.3): 1.77

Compound	logP	also measured
O=C(Nc1ccccc1-c1ccc(Cl)cc1)c1cccnc1Cl	2.96	
CC(C)=CC1C(C(=O)OCc2cccc(Oc3ccccc3)c2)C1(C)C (configuration not stated)	6.01	solubility (25 °C): < 2.77e-05 mM
COC(=O)c1ccccc1S(=O)(=O)NC(=O)N(C)c1nc(C)nc(OC)n1		solubility (pH 5.0, 25 °C): 0.126 mM (≈ 50 µg/mL)
CCCCNC1(P(=O)(OCCCC)OCCCC)CCCCC1		solubility (20 °C): 0.489 mM (≈ 170 µg/mL)
COC(=O)N(C(=O)N1CO[C@@]2(C(=O)OC)Cc3cc(Cl)ccc3C2=N1)c1ccc(OC(F)(F)F)cc1	4.65	
CCOC1Oc2ccc(OS(C)(=O)=O)cc2C1(C)C (configuration not stated)	2.7	solubility (25 °C): 0.259 mM (≈ 74.1 µg/mL)
Clc1ccc(C2(Cn3cncn3)CC(Br)CO2)c(Cl)c1 (configuration not stated)	3.24	solubility (25 °C): 0.133 mM (≈ 50 µg/mL)
CCCC1COC(Cn2cncn2)(c2ccc(Cl)cc2Cl)O1 (configuration not stated)	3.72	solubility (20 °C): 0.321 mM (≈ 110 µg/mL)
Cc1ccc2nc3sc(=O)sc3nc2c1	3.78	solubility (20 °C): 0.00427 mM (≈ 1 µg/mL)
CC(Oc1cccc(Cl)c1)C(=O)O (configuration not stated)		solubility (22 °C): 5.98 mM (≈ 1200 µg/mL)
Nc1c(Cl)c(F)nc(OCC(=O)O)c1Cl		solubility (pH 9.2, 20 °C): 0.357 mM (≈ 91 µg/mL)
Nc1nc[nH]n1	-0.97	
CCCCC(CC)COC(=O)COc1ccc(Cl)cc1Cl (configuration not stated)	5.78	
Nc1c(Cl)c(Cl)nc(C(=O)O)c1Cl	1.9	
C#CCOS(=O)OC1CCCCC1Oc1ccc(C(C)(C)C)cc1 (configuration not stated)		solubility (25 °C): 0.00143 mM (≈ 0.5 µg/mL)
CC(C)=CC1C(C(=O)OCc2coc(Cc3ccccc3)c2)C1(C)C (configuration not stated)		solubility (25 °C): 0.000315 mM (≈ 0.107 µg/mL)
CCSC(=O)N(CC)C1CCCCC1	3.88	
CC1OC(C)OC(C)OC(C)O1 (configuration not stated)	0.12	
CCCCOC(=O)[C@@H](C)Oc1ccc(Oc2ccc(C#N)cc2F)cc1	3.31	
CN(C)C(=S)SSC(=S)N(C)C	1.73	
O=[N+]([O-])/N=C1\NCCN1Cc1ccc(Cl)nc1	0.57	
CC(C)N(C(=O)CCl)c1ccccc1		solubility (25 °C): 3.31 mM (≈ 700 µg/mL)
CCCCCCCC(=O)Oc1c(Br)cc(C#N)cc1Br	5.4	
Fc1ccc(Oc2ccnc3cc(Cl)cc(Cl)c23)cc1	4.66	solubility (20 °C): 0.000376 mM (≈ 0.116 µg/mL)
N#Cc1c(Cl)c(Cl)c(Cl)c(C#N)c1Cl		solubility (25 °C): 0.00226 mM (≈ 0.6 µg/mL)
CON=C(C(=O)OC)c1ccccc1CON=C(C)c1cccc(C(F)(F)F)c1	4.5	
N#CCON=C(C#N)c1ccccc1		solubility (20 °C): 0.513 mM (≈ 95 µg/mL)
